Results: patent US10772928B2, “Modulation and detection of a neuronal alternative splicing regulatory network for treatment and diagnosis of neurological disorders” (The Governing Council of the University of Toronto, priority 2014, dated 2020)
“Also recorded” adds a separate entry of the source. Values belong to the compound of their own block, whether it stands above or below them. Peptide text beside a SMILES is read from it. * marks the point of attachment. Cbz = O=C(OCc1ccccc1)*

Assays:
[1] = tested on: hippocampal mouse neurons; assay: RNA-Seq analysis of alternative splicing events after KCl depolarization of cultured hippocampal neurons (Table 3); format: cell-based; settings: for number of alternative splicing events displaying changes: change of at least 15
Description: A) Number of alternative splicing events with PSI, percent intron retention (PIR) or percent splice site usage (PSU) changes of at least 15, 30 minutes and 3 hours after neuronal depolarization. B) Microexons and cassette exons are preferentially skipped following neuronal depolarization, whereas retained introns show no directionality. C) Gene ontology analysis of microexons and cassettes exons with ΔPSI≥15 during neuronal depolarization.
A systematic analysis of alternative splicing events modulated by neuronal activity, including microexons, longer cassette exons, retained introns and alternative 5′ and 3′ splice sites was first performed. Cultured wild-type hippocampal mouse neurons were depolarized using KCl treatment for thirty minutes or three hours and RNA-Seq analysis was performed on these samples. […] Among the additional alternative splicing events affected by neuronal depolarization were 887 (of 10830 detected alternative cassette exons>27 nt; 8.1%) alternative cassette exons and 672 retained introns. Longer alternative cassette exons were also primarily skipped in depolarized neurons (747/887; 84.2%) (FIG. 42B). Genes harboring depolarization-dependent alternative cassette exons have functions related to signal transduction and transcription regulation whereas those with microexons relate primarily to vesicle transport (FIG. 42C).

nSR100 [2] = assay: nSR100 protein (western blot) and mRNA (qRT-PCR) levels in KCl-depolarized DIV11 cortical neurons; format: cell-based, mouse
Excerpt: A) Overlap between microexons that are skipped in humans with ASD (upper set), skipped upon neuronal depolarization (lower left set) and nSR100-regulated microexons (lower right set). B) Microexons were plotted based on their PSI difference between depolarized and resting wild-type neurons (X-axis), and between nSR100^Δ7-8/Δ7-8 and nSR100^+/+ mice (Y-axis). C) Cumulative distribution plots indicating the position of the first UGC motif within 200 nt upstream of neuronal activity-regulated microexons (dashed curve) or longer cassette exons (thick solid curve) vs. non-neural alternative cassette exons (light solid curve). The number of exons used to analyze each subgroup is shown in parentheses. D) Western blot on KCl-treated DIV11 cortical neurons (left panel) and quantification of nSR100 protein level (right panel). E) RT-PCR showing increased intron retention and microexon inclusion in nSR100 transcripts early after depolarization of DIV11 cortical neurons. […] G) Representative RT-PCRs on nuclear and cytosolic fractions (left panel) to assess localization of nSR100 transcripts in three replicates of cultured DIV4 cortical neurons with qRT-PCR quantification of the abundance of nSR100 isoforms harboring the retained intron, normalized to GAPDH levels in the correspondent cell fractions from six replicates (right panel). […]

nSR100 [3] = assay: nSR100 protein levels by western blot in dox-inducible, nSR100-expressing 293T cells; format: cell-based, human; settings: versus DMSO or control siRNAs
Excerpt: Tubulin detection was used as loading control.
RT-PCR assays were used to confirm FBXW11 knockdown. nSR100 protein levels were monitored using a western blot. Tubulin and 1-actin detection was used to control for loading.
By applying affinity purification coupled to mass-spectrometry (AP-MS), several interaction nSR100 partner proteins were detected that provide insight into mechanisms of post-translational regulation of nSR100 levels. For example, AP-MS experiments identified the F-box protein FBXW11 (also known as 1TRCP2) as an nSR100 interaction partner. The Skp-Cullin-F-box (SCF) complex is a multi-protein complex that regulates cellular protein levels via ubiquitin-mediated proteolysis. FBXW11 is an E3 ubiquitin ligase that confers specificity to the SCF complex by recognizing a particular phosphodegron on targets. In addition, Skp1, which is required for recognizing and binding FBXW11, was also detected in nSR100 AP-MS experiments. Phosphorylation of consensus binding sites for F-box proteins, including FBXW11, is typically required for targeting of proteins for degradation by the proteosomal pathway. The set of nSR100 interaction partners identified by AP-MS included several kinases such as PLK1, GSK3B, CSNK2, CSNK1, CDK1 and SRPK1, as well as other kinases that may control nSR100 levels and or activity.

nSR100 [4] = target: T1, nSR100 (Homo sapiens, UniProt A7MD48); assay: Regulation by nSR100: microexon inclusion level (PSI) by RNA-Seq in human 293T cells overexpressing nSR100 (Table 1); format: cell-based; settings: YES/NO
T1 construct: expressed in transfected cells; host or cells: 293T (human kidney cells), doxycycline-inducible nSR100 expression
T1 sequence (A7MD48 1-611): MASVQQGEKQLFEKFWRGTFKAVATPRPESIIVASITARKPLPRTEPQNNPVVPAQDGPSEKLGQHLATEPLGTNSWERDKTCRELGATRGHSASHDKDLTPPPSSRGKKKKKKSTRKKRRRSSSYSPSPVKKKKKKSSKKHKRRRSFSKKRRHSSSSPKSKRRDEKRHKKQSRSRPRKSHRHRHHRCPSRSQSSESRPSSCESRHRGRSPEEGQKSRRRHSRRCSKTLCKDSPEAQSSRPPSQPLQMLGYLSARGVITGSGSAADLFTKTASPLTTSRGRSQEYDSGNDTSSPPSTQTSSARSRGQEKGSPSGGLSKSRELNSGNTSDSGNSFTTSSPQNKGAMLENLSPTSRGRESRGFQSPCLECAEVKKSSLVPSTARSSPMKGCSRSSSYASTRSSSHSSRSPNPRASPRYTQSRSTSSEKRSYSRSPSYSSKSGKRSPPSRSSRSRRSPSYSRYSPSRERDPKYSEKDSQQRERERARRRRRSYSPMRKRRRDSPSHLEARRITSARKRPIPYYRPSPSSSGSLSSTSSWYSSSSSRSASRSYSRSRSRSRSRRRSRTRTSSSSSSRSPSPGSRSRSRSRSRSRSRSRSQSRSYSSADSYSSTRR
Excerpt: A) Percent of neural-regulated exons within each length class that is affected by nSR100 expression in human 293T kidney cells (absolute ΔPSI>15, light grey or absolute ΔPSI>25, dark grey). p-values correspond to two-sided proportion tests of affected vs. non-affected events. B) Average normalized density of nSR100 cross-linked sites in 200 nt windows encompassing neural-regulated exons of different length classes. FPB, Fragments Per Billion. […]
(§1) An RNA-Seq analysis pipeline was developed to detect and quantify all AS event classes involving all hypothetically possible splice junctions formed by the usage of annotated and unannotated splice sites, including those that demarcate microexons. […]
(§2) A multi-module analysis pipeline was developed that uses RNA-Seq, expressed sequence tag (EST) and cDNA data, as well as gene annotations and evolutionary conservation, to assemble libraries of exon-exon-junctions (EEJs) for subsequent read alignment to detect and quantify AS events in RNA-Seq data. […] Alt3 or Alt5 events were quantified based on the fraction of reads supporting the usage of each alternative splice site. Intron retention was analyzed as recently described (Braunschweig et al., 2014). […]

nSR100 [5] = target: T2, nSR100 (Mus musculus, UniProt Q8BKA3); assay: Regulation by nSR100: microexon inclusion level (PSI) by RNA-Seq in mouse N2A cells depleted of nSR100 (Table 2); format: cell-based
T2 construct: host or cells: mouse N2A cells
T2 sequence (Q8BKA3 1-608): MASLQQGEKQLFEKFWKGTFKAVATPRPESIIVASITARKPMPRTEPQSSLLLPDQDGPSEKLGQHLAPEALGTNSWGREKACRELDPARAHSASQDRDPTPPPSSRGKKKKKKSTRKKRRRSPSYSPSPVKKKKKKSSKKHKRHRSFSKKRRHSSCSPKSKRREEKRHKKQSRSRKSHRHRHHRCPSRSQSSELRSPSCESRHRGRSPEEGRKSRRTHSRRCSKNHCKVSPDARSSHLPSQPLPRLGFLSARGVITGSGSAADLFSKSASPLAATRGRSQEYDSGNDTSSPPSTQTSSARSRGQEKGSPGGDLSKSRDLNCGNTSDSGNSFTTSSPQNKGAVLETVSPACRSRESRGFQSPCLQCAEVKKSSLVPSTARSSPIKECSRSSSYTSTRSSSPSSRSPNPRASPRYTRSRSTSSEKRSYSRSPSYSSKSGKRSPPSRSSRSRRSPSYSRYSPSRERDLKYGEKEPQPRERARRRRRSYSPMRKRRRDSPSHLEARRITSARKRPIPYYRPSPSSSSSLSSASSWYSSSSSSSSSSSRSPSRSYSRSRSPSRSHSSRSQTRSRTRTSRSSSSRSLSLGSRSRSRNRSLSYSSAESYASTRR
Excerpt: A-H) Percent of neural-regulated exons within each length class that is affected at 15<|ΔPSI|<25 and |ΔPSI|>25 by (A) RBFOX1 knockdown in human neural precursor cells; (B) MBNL1 and MBNL2 double knockdown in human HeLa cells; (C) ESRP1 knockdown in human PNT2 cells; (D) nSR100/Srrm4 knockdown in mouse N2A cells; (E) Ptbp1 knockdown in mouse N2A cells; (F) Ptbp2 knockout in mouse cortex (P1 stage); (G) Ptbp2 knockout in mouse embryonic brain (18.5 days post-conception); and (H) Rbfox1 knockout. p values correspond to two-sided proportion tests of regulated versus non-regulated events. I) Expression of nSR100 in different isolated brain cell types (Zhang et al., 2014). Error bars indicate SEM. […]
as §1
as §2, with “site.” for “site. Intron retention was analyzed as recently described (Braunschweig et al., 2014).”

Compound: [Cl-].[K+] [KCl]
number of alternative splicing events displaying changes ([1]; 30 minutes after KCl treatment): 222
microexons with increased skipping, share of all microexons ([1]; 3 hours of KCl treatment): 14.7%
number of microexons with higher inclusion levels ([1]; 3 hours of KCl treatment): 7
number of microexons with increased skipping (of 598 detected) ([1]; 3 hours of KCl treatment): 88
number of alternative splicing events displaying changes ([1]; 3 hours of KCl treatment): 1,829
decrease in nSR100 protein levels (nSR100 [2]; 30 minutes into KCl treatment, DIV11 cortical neurons): 2 fold
nSR100 mRNA levels (nSR100 [2]; thirty minutes after depolarization, qRT-PCR): remain steady

Compound: CC(C)C[C@@H](C=O)NC(=O)[C@H](CC(C)C)NC(=O)[C@H](CC(C)C)NC(=O)OCc1ccccc1 [MG132] (Cbz-Leu-Leu-Leu-aldehyde)
nSR100 protein levels (nSR100 [3]): increased levels of SRRM4; also recorded: significant increases in levels of nSR100

Compound: DTNB
Regulation by nSR100 (nSR100 [4]): YES (minimum threshold (PSI≥10) requirement for annotation as “YES”)

Regulation by nSR100 (nSR100 [5]; threshold change of PSI≥10): YES
Compound: Dtnb

Regulation by nSR100 (nSR100 [5]; YES/NO): YES
Compound: Sbf1
